Measurements as given in ChEMBL document CHEMBL2385071, “Synthesis and biological investigation of coumarin piperazine (piperidine) derivatives as potential multireceptor atypical antipsychotics” (J Med Chem, 2013).

Assays:
[1] = target: D(2) dopamine receptor (Rattus norvegicus, UniProt P61169)
[2] = target: 5-hydroxytryptamine receptor 2A (Rattus norvegicus, UniProt P14842); test: Displacement of [3H]ketanserin from 5HT2A receptor in rat cerebral cortex after 15 mins by liquid scintillation counting analysis; type: tissue-based
[3] = target: T1, 5-hydroxytryptamine receptor 1A (Rattus norvegicus, UniProt P19327); test: biochemical
T1 sequence (P19327 whole entry): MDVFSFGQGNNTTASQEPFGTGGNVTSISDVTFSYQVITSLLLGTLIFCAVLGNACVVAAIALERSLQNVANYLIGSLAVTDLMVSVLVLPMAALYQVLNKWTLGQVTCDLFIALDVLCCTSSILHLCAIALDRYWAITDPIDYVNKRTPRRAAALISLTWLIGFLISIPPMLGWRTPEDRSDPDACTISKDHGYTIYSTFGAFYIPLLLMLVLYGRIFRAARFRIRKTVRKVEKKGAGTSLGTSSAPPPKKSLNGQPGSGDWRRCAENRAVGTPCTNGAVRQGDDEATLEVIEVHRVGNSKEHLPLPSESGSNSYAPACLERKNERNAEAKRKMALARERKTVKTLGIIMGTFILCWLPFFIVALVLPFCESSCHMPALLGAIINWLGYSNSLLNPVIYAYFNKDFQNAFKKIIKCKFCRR
Description: Displacement of [3H]8-OH-DPAT from 5HT1A receptor in rat cerebral cortex after 30 mins by liquid scintillation counting analysis

[4] = target: T2, D(2) dopamine receptor (Homo sapiens, UniProt P14416); test: Agonist activity at dopamine D2 receptor (unknown origin) expressed in CHOK1 cells coexpressing Galpha15 at 10 uM by FLIPR assay relative to control; type: cell-based; settings: CHO-K1
[5] = target: T3, 5-hydroxytryptamine receptor 2A (Homo sapiens, UniProt P28223); test: Binding affinity to 5HT2A receptor (unknown origin)
[6] = target: T2, D(2) dopamine receptor
[7] = target: T4, Alpha-1A adrenergic receptor (Homo sapiens, UniProt P35348); test: Binding affinity to alpha-1A adrenergic receptor (unknown origin); settings: read-out: pA2 (converted)
T4 sequence (P35348 whole entry): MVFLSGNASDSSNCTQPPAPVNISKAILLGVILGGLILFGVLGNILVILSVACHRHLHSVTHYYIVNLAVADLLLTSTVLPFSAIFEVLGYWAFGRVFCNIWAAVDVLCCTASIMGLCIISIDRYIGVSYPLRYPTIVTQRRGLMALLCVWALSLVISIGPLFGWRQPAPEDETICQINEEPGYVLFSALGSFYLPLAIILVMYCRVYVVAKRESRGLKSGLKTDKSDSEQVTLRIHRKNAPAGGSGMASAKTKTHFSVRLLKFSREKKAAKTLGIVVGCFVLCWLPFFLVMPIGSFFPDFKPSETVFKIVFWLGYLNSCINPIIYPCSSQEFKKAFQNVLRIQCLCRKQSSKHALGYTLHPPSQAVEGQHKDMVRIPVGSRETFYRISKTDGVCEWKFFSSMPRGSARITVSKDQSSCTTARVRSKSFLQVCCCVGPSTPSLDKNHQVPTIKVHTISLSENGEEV

[8] = system: Mus musculus; test: Toxicity in po dosed mouse assessed as induction of catalepsy; type: organism-based; settings: in vivo
[9] = target: T5, 5-hydroxytryptamine receptor 1A (Homo sapiens, UniProt P08908); test: Binding affinity to 5HT1A receptor (unknown origin)
T5 sequence (P08908 whole entry): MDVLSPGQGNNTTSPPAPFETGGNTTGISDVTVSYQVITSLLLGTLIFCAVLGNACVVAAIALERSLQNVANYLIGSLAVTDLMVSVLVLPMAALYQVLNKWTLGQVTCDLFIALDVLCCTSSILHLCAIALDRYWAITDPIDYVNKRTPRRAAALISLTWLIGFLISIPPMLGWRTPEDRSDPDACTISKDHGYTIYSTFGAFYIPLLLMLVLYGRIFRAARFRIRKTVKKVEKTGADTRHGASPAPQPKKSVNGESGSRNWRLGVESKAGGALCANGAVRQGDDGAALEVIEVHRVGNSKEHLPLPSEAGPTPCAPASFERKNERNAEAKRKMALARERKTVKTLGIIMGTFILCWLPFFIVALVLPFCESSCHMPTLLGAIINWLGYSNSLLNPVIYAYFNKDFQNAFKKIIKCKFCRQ

[10] = target: D(3) dopamine receptor (Homo sapiens, UniProt P35462); test: Binding affinity to dopamine D3 receptor (unknown origin)
[11] = target: T3, 5-hydroxytryptamine receptor 2A; test: Antagonist activity at 5HT2A receptor (unknown origin) expressed in CHOK1 cells coexpressing Galpha15 assessed as inhibition of agonist-induced response at 10 uM incubated for 60 mins in incubator followed by 15 mins at room temperature by FLIPR assay relative to control; type: cell-based; settings: CHO-K1
[12] = target: T2, D(2) dopamine receptor; remark: listed apart in the source
[13] = target: T2, D(2) dopamine receptor; test: Antagonist activity at dopamine D2 receptor (unknown origin) expressed in CHOK1 cells coexpressing Galpha15 assessed as inhibition of agonist-induced response at 10 uM incubated for 60 mins in incubator followed by 15 mins at room temperature by FLIPR assay relative to control; type: cell-based; settings: CHO-K1
[14] = species: Mus musculus; test: animal or person; settings: po
[15] = species: Mus musculus; test: animal or person; settings: po; remark: listed apart in the source
Description: Antipsychotic activity in po dosed mouse assessed as reduction in apomorphine-induced climbing behavior administered for 30 mins prior to apomorphine-challenge measured at 10 to 30 mins post-dose

[16] = in vivo; settings: mouse, po
[17] = in vivo; settings: mouse, po; remark: listed apart in the source
Description: Therapeutic Index, ratio of ED50 for catalepsy in mouse to ED50 for antipsychotic activity in po dosed mouse assessed as reduction in apomorphine-induced climbing behavior

[18] = target: T3, 5-hydroxytryptamine receptor 2A; test: Agonist activity at 5HT2A receptor (unknown origin) expressed in CHOK1 cells coexpressing Galpha15 at 10 uM by FLIPR assay relative to control; type: cell-based; settings: CHO-K1

T3 sequence (P28223 whole entry): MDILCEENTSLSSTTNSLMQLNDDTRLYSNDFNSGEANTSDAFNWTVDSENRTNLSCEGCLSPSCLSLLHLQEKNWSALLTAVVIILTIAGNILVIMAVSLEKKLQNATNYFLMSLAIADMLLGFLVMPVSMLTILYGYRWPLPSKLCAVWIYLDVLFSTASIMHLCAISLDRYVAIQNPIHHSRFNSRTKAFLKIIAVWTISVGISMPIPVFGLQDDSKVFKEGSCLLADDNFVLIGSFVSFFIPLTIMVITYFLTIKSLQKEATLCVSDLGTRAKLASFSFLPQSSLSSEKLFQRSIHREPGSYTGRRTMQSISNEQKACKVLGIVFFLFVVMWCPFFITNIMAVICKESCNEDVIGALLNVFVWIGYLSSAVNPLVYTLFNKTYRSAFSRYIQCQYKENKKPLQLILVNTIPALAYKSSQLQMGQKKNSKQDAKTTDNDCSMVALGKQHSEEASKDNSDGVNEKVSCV
D(2) dopamine receptor (Rattus norvegicus, UniProt P61169), sequence (P61169 whole entry): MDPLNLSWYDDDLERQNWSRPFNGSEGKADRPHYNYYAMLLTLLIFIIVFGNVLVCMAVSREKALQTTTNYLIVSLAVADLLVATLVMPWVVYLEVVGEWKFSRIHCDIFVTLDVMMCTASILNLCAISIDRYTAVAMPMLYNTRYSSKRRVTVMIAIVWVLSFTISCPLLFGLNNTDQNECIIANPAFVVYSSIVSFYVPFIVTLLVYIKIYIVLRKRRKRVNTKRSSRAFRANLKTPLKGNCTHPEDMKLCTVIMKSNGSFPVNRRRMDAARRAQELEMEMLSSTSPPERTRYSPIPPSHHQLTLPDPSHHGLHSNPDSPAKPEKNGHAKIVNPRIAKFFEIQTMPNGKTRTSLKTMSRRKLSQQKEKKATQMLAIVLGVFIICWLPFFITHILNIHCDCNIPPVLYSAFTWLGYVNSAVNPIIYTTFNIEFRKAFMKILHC
5-hydroxytryptamine receptor 2A (Rattus norvegicus, UniProt P14842), sequence (P14842 whole entry): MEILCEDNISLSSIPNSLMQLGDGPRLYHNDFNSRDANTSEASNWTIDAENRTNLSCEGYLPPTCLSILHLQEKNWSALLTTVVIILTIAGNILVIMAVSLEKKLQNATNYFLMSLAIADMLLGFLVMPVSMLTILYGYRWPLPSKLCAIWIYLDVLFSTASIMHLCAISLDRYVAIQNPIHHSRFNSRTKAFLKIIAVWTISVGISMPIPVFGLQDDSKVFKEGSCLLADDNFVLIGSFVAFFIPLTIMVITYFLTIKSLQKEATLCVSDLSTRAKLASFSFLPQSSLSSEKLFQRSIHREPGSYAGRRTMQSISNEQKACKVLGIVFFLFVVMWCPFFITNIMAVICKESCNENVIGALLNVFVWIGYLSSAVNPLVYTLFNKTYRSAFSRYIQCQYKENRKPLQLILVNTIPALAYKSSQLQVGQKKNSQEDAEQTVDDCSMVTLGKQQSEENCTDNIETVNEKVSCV
T2 sequence (P14416 whole entry): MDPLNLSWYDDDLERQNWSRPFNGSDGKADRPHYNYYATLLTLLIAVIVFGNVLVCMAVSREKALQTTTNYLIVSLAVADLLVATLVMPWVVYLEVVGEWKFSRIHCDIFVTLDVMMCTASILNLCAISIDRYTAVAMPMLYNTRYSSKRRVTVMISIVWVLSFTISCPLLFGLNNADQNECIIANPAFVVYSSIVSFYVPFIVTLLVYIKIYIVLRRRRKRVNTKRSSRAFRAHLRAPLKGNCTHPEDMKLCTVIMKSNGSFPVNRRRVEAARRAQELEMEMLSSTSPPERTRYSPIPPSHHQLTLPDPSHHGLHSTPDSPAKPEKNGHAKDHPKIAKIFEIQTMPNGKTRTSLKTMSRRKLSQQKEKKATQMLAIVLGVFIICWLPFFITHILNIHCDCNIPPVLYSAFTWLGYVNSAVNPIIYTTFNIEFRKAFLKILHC
D(3) dopamine receptor, sequence (P35462 whole entry): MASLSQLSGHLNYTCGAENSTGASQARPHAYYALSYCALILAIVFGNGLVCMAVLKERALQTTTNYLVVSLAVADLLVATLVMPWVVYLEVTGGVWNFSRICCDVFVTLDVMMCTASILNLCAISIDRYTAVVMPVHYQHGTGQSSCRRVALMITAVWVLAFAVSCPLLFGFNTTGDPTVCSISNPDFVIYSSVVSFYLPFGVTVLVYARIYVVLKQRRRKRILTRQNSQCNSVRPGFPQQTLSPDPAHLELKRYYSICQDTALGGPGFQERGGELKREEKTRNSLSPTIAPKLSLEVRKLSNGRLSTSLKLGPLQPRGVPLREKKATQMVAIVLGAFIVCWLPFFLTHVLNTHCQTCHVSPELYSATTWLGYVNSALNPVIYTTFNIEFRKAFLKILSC

Row | Structure (SMILES) | Ki [1] [nM] | Ki [2] [nM] | Ki [3] [nM] | further results
1 | Cc1ccc(S(=O)(=O)N2CCN(CCCCOc3ccc4c(C)cc(=O)oc4c3)CC2)cc1 | 1590 | > 10000 | 1200 | –
2 | COc1ccc(N2CCN(CCCCOc3ccc4c(C)cc(=O)oc4c3)CC2)cc1 | 412 | 1010 | 530 | –
3 | Cc1cc(=O)oc2cc(OCCCCN3CCN(c4cccc(C(F)(F)F)c4)CC3)ccc12 | 143 | 157 | 15.6 | –
4 | Cc1c(C)c2ccc(OCCCCN3CCC(c4noc5cc(F)ccc45)CC3)c(C)c2oc1=O | 10.7 | 607 | 3070 | –
5 | Cc1cc(=O)oc2cc(OCCCCN3CCN(c4cccc(Cl)c4Cl)CC3)ccc12 | 1870 | 101 | 11.5 | –
6 | COc1ccccc1N1CCN(CCCCOc2ccc3c(-c4ccccc4)cc(=O)oc3c2)CC1 | > 10000 | > 10000 | > 10000 | –
7 | COc1ccccc1N1CCN(CCCCOc2ccc3c(C)cc(=O)oc3c2Cl)CC1 | 119 | 588 | 151 | –
8 | O=c1cc(-c2ccccc2)c2ccc(OCC(O)CN3CCC(c4noc5cc(F)ccc45)CC3)cc2o1 (stereo not drawn) | 987 | 1570 | 692 | –
9 | Cc1cc(=O)oc2cc(OC/C=C/CN3CCC(c4noc5cc(F)ccc45)CC3)ccc12 | 17.1 | 0.5 | 44.5 | –
10 | Cc1cc(=O)oc2cc(OCCCCN3CCC(C(=O)c4ccc(F)cc4)CC3)ccc12 | 182 | 257 | 165 | –
11 | NCCc1ccc(O)c(O)c1 | – | – | – | Activity [4]: 101%
12 | O=c1cc(-c2cccs2)c2ccc(OCCCCN3CCC(c4noc5cc(F)ccc45)CC3)cc2o1 | 2350 | > 10000 | > 10000 | –
13 | Cc1cc(=O)oc2cc(OCCCCN3CCN(c4nsc5ccccc45)CC3)ccc12 | 176 | 104 | 113 | –
14 | O=c1cc(C2CC2)c2ccc(OCCCCN3CCC(c4noc5cc(F)ccc45)CC3)cc2o1 | > 10000 | > 10000 | > 10000 | –
15 | Cc1cc(=O)oc2cc(OCCCCCN3CCC(c4noc5cc(F)ccc45)CC3)ccc12 | 123 | 306 | 1720 | –
16 | COc1ccccc1N1CCN(CCCOc2ccc3c(C)cc(=O)oc3c2)CC1 | – | – | – | Ki [5]: 174 nM; Ki [6]: 11.7 nM; Kb [7]: 0.851 nM
17 | O=c1cc(C(F)(F)F)c2ccc(OCCCCN3CCC(c4noc5cc(F)ccc45)CC3)cc2o1 | 3010 | 228 | 42.9 | –
18 | COc1ccccc1N1CCN(CCCCOc2ccc3c(CO)cc(=O)oc3c2)CC1 | > 10000 | > 10000 | > 10000 | –
19 | O=C1CC(c2ccccc2)c2ccc(OCCCCN3CCC(c4noc5cc(F)ccc45)CC3)cc2O1 (stereo not drawn) | 515 | 559 | > 10000 | –
20 | CN1CCN(C2=Nc3cc(Cl)ccc3Nc3ccccc32)CC1 [CLOZAPINE] | – | – | – | ED50 [8]: 92.73 mg/kg
21 | COc1ccccc1N1CCN(CCCCOc2ccc3c(C)c(C)c(=O)oc3c2)CC1 | > 10000 | 58.9 | > 10000 | –
22 | CCCc1cc(=O)oc2cc(OCCCCN3CCC(c4noc5cc(F)ccc45)CC3)ccc12 | 3.9 | 30.8 | 410 | –
23 | Cc1cc(=O)oc2cc(OCCCCN3CCN(c4ccccn4)CC3)ccc12 | 2820 | 897 | 102 | –

Row | Structure (SMILES) | Ki [1] [nM] | Ki [2] [nM] | Ki [3] [nM] | further results
24 | COc1cccc(N2CCN(CCCCOc3ccc4c(C)cc(=O)oc4c3)CC2)c1 | 156 | 469 | 89.2 | –
25 | Cc1cc(=O)oc2cc(OCC(O)CN3CCC(c4noc5cc(F)ccc45)CC3)ccc12 (stereo not drawn) | > 10000 | 453 | 517 | –
26 | COc1ccccc1N1CCN(CCCCOc2ccc3ccc(=O)oc3c2)CC1 | 569 | 1680 | 876 | –
27 | O=c1cc(-c2ccc(F)cc2)c2ccc(OCCCCN3CCC(c4noc5cc(F)ccc45)CC3)cc2o1 | 632 | > 10000 | > 10000 | –
28 | Cc1cc(=O)oc2cc(OCCCN3CCN(c4ccccc4)CC3)ccc12 | – | – | – | Ki [9]: 0.79 nM; Ki [6]: 10.8 nM; Ki [10]: 18.9 nM
29 | O=C(c1ccc(F)cc1)C1CCN(CCn2c(=O)[nH]c3ccccc3c2=O)CC1 | – | – | – | inhibition [11]: 99.9%
30 | OCCN1CCN(CCCN2c3ccccc3Sc3ccc(Cl)cc32)CC1 [PERPHENAZINE] | – | – | – | IC50 [12]: 0.3 nM; inhibition [13]: 100%
31 | CCc1cc(=O)oc2cc(OCCCCN3CCC(c4noc5cc(F)ccc45)CC3)ccc12 | 1930 | 51.3 | 1470 | –
32 | Cc1cc(=O)oc2cc(OCCCN3CCC(c4noc5cc(F)ccc45)CC3)ccc12 | 116 | 140 | 328 | –
33 | Cc1cc(=O)oc2cc(OCCCCN3CCC(c4noc5cc(F)ccc45)CC3)c(Cl)cc12 | > 10000 | 10.6 | 17.2 | –
34 | O=c1cc(CO)c2ccc(OCCCCN3CCC(c4noc5cc(F)ccc45)CC3)cc2o1 | > 10000 | > 10000 | 2160 | –
35 | O=C(CCCN1CCC(O)(c2ccc(Cl)cc2)CC1)c1ccc(F)cc1 [HALOPERIDOL] | – | – | – | ED50 [14]: 0.19 mg/kg; ED50 [8]: 0.22 mg/kg; ED50 [15]: 0.09 mg/kg; selectivity ratio [16]: 1.16; selectivity ratio [17]: 2.44
36 | Cc1cccc(N2CCN(CCCCOc3ccc4c(C)cc(=O)oc4c3)CC2)c1C | 1390 | 259 | 48.4 | –
37 | NCCc1c[nH]c2ccc(O)cc12 | – | – | – | Activity [18]: 100%
38 | Cc1cc(=O)oc2cc(OCCCCN3CCC(c4nc5ccccc5s4)CC3)ccc12 | 242 | 215 | 146 | –
39 | O=c1ccc2ccc(OCCCCN3CCC(c4noc5cc(F)ccc45)CC3)cc2o1 | 44.9 | 1460 | 553 | –
40 | COc1ccccc1N1CCN(CCCCOc2ccc3c(C)cc(=O)oc3c2C)CC1 | 844 | 941 | 112 | –
41 | COc1ccccc1N1CCN(CCCCOc2ccc3c(C(F)(F)F)cc(=O)oc3c2)CC1 | > 10000 | 810 | 41.8 | –
42 | Cc1cc(OCCCCN2CCC(c3noc4cc(F)ccc34)CC2)cc2oc(=O)cc(C)c12 | 459 | 549 | 18.9 | –
43 | COc1cccc(-c2cc(=O)oc3cc(OCCCCN4CCC(c5noc6cc(F)ccc56)CC4)ccc23)c1 | 787 | > 10000 | > 10000 | –
44 | CC(C)c1cc(=O)oc2cc(OCCCCN3CCC(c4noc5cc(F)ccc45)CC3)ccc12 | 2350 | > 10000 | > 10000 | –
45 | Cc1cc(=O)oc2cc(OCCCCN3CCC(c4nc5ccccc5o4)CC3)ccc12 | > 10000 | 1550 | 1390 | –
